{"source": "patent EP3253400B1", "about": "“OLEANOYL PEPTIDE COMPOSITION” (Majeed, Muhammed, priority 2015, dated 2023)", "key": {"CALML5": {"system": "CALML5", "details": "gene CALML5 (calmodulin-like 5); EFT-400 culture, 100 µL applied, 24 hours", "protocol": "(§1) The objective of the study was to understand how application of test composition containing peptide of SEQ ID No. 1 linked to oleanolic acid represented by STR#1 influences gene expression in the skin. The current study was conducted using a full-thickness in vitro skin culture model (EFT-400, MatTek). One hundred microliters of Test Material was applied to the surface of each test culture and incubated for a period of 24 hours.\n(§2) Treatment and Maintenance of cultures: 100 µL of test composition containing peptide of SEQ ID No. 1 linked to oleanolic acid represented by STR#1 was applied to the center of each EFT-400 culture. A sterile glass spreader was used to distribute the Test Material. Each culture was visually inspected to ensure even distribution. Following application, the cultures were returned to the incubator at 37°C with 5% CO2 for 24 hours. After 24 hours, the Test Materials were washed from the surface of each culture with sterile PBS. Following removal of test material, each culture was cut into quarters and placed into RNA solution.\n(§3) RNA Isolation: RNA was isolated from tissues using a Maxwell 16 LEV RNA Tissue kit following the manufacturer's instructions (Promega) and vacuum concentrated until >200ng/uL as required for OpenArray processing. RNA concentration and purity were determined using a Nanodrop 2000 spectrophotometer. cDNA synthesis: cDNA was generated using a High Capacity cDNA Synthesis Kit according to the manufacturer's instructions for OpenArray processing (Life Technologies).\n(§4) qPCR Processing: qPCR reactions were run using validated Taqman gene expression assays in an OpenArray format. OpenArrays were run in a Life Technologies QuantStudio 12K Flex instrument.\n(§5) Data Analysis: qPCR data was imported into RealTime StatMiner software v4.2 for statistical analysis using the relative quantitation (RQ) method. In the first step of an RQ analysis, the CT value of the target gene is normalized to the CT value of an endogenous control gene for each sample to generate the delta CT (dCT)."}, "KRT10": {"system": "KRT10", "details": "gene KRT10 (keratin 10); EFT-400 culture, 100 µL applied, 24 hours", "protocol": "as §1, §2, §3, §4, §5"}, "TNF": {"system": "TNF", "details": "gene TNF (tumor necrosis factor (TNFsuperfamily,member)); EFT-400 culture, 100 µL applied, 24 hours", "protocol": "as §1, §2, §3, §4, §5"}, "LCE3D": {"system": "LCE3D", "details": "gene LCE3D (late cornified envelope 3D); EFT-400 culture, 100 µL applied, 24 hours", "protocol": "as §1, §2, §3, §4, §5"}, "ITGB4": {"system": "ITGB4", "details": "gene ITGB4 (integrin, beta 4); EFT-400 culture, 100 µL applied, 24 hours", "protocol": "as §1, §2, §3, §4, §5"}, "CDSN": {"system": "CDSN", "details": "gene CDSN (corneodesmosin); EFT-400 culture, 100 µL applied, 24 hours", "protocol": "as §1, §2, §3, §4, §5"}, "HSP-47": {"system": "HSP-47", "details": "EFT-400 culture, 100 µL applied, 24 hours; values only in Fig. 5", "protocol": "as §1, §2, §3, §4, §5"}, "TP63": {"system": "TP63", "details": "gene TP63 (tumor protein p63); EFT-400 culture, 100 µL applied, 24 hours", "protocol": "as §1, §2, §3, §4, §5"}, "KRT4": {"system": "KRT4", "details": "gene KRT4 (keratin 4); EFT-400 culture, 100 µL applied, 24 hours", "protocol": "as §1, §2, §3, §4, §5"}, "AQP5": {"system": "AQP5", "details": "gene AQP5 (aquaporin 5); EFT-400 culture, 100 µL applied, 24 hours", "protocol": "as §1, §2, §3, §4, §5"}, "TGFB1": {"system": "TGFB1", "details": "gene TGFB1 (transforming growth factor, beta 1); EFT-400 culture, 100 µL applied, 24 hours", "protocol": "as §1, §2, §3, §4, §5"}, "IL8": {"system": "IL8", "details": "gene IL8 (interleukin 8); EFT-400 culture, 100 µL applied, 24 hours", "protocol": "as §1, §2, §3, §4, §5"}, "LOR": {"system": "LOR", "details": "gene LOR (loricrin); EFT-400 culture, 100 µL applied, 24 hours", "protocol": "as §1, §2, §3, §4, §5"}, "ILIA": {"system": "ILIA", "details": "gene ILIA (interleukin 1, alpha); EFT-400 culture, 100 µL applied, 24 hours", "protocol": "as §1, §2, §3, §4, §5"}, "FLG": {"system": "FLG", "details": "gene FLG (filaggrin); EFT-400 culture, 100 µL applied, 24 hours", "protocol": "as §1, §2, §3, §4, §5"}, "BMP2": {"system": "BMP2", "details": "gene BMP2 (bone morphogenetic protein 2); EFT-400 culture, 100 µL applied, 24 hours", "protocol": "as §1, §2, §3, §4, §5"}, "KLK5": {"system": "KLK5", "details": "gene KLK5 (kallikrein-related peptidase 5); EFT-400 culture, 100 µL applied, 24 hours", "protocol": "as §1, §2, §3, §4, §5"}, "PPARD": {"system": "PPARD", "details": "gene PPARD (peroxisome proliferator-activated receptor); EFT-400 culture, 100 µL applied, 24 hours", "protocol": "as §1, §2, §3, §4, §5"}, "PTGS2": {"system": "PTGS2", "details": "gene PTGS2 (Prostaglandin endoperoxide synthase 2/ COX2); EFT-400 culture, 100 µL applied, 24 hours", "protocol": "as §1, §2, §3, §4, §5"}, "CLDN7": {"system": "CLDN7", "details": "gene CLDN7 (claudin 7); EFT-400 culture, 100 µL applied, 24 hours", "protocol": "as §1, §2, §3, §4, §5"}, "DSG3": {"system": "DSG3", "details": "gene DSG3 (desmoglein 3); EFT-400 culture, 100 µL applied, 24 hours", "protocol": "as §1, §2, §3, §4, §5"}, "MKI67": {"system": "MKI67", "details": "gene MKI67 (antigen identified by Ki-67 antibody); EFT-400 culture, 100 µL applied, 24 hours", "protocol": "as §1, §2, §3, §4, §5"}, "[1]": {"system": "Transforming Growth Factor-β (TGF- β)", "experiment": "TGF-β production by Human Dermal Fibroblast cells, ELISA", "format": "cell-based", "details": "HDF cells, graded concentrations, 48 hrs, vs un-treated cells; values only in Fig. 1", "protocol": "(§6) Evaluation of Transforming Growth factor beta (TGF-β) and Fibroblast Growth Factor (FGF): Human Dermal Fibroblast (HDF) cells were cultured in DMEM medium with 10% FBS and seeded in 96 well tissue culture plate for the test. […] After 48hrs the supernatant was collected from each well. The amount of TGF-β and FGF produced by the various treated HDF was quantified using ELISA method according to the kit protocol provided by the manufacturer (R&D Systems) and absorbance was measured at 450 nm using Fluostar Optima. Standard curve was generated by plotting absorbance values of standards against appropriate TGF-β/ FGF concentrations. TGF-β/ FGF concentrations of the control and test samples were calculated from the standard graph equation. Percentage increase of expression in test samples was calculated with respect to un-treated cells. The results of the experiment are exemplified in Figs. 1 and 2 respectively. The importance of TGF- β1 in the synthesis of extracellular matrix in well established in • 1. Yang T et al, \"miR-29 mediates TGFβ1-induced extracellular matrix synthesis through activation of PI3K-AKT pathway in human lung fibroblasts\", J Cell Biochem. 2013 Jun;114(6):1336-42; • 2. Tan J et al, \"MicroRNA-29 mediates TGFβ1-induced extracellular matrix synthesis by targeting wnt/β-catenin pathway in human orbital fibroblasts.\" Int J Clin Exp Pathol. 2014 Oct 15;7(11):7571-7; • 3. […]"}, "TIMP": {"system": "TIMP", "experiment": "Gene expression analysis, full-thickness in vitro skin culture model (EFT-400), qPCR", "format": "cell-based, human", "details": "EFT-400 culture, 100 µL applied, 24 hours; values only in Fig. 6", "description": "(§7) Each culture was visually inspected to ensure even distribution."}, "LOX": {"system": "LOX", "experiment": "Gene expression analysis, full-thickness in vitro skin culture model (EFT-400), qPCR", "format": "cell-based, human", "details": "EFT-400 culture, 100 µL applied, 24 hours; values only in Fig. 4", "description": "as §7"}, "HSP-90": {"system": "HSP-90", "experiment": "Gene expression analysis, full-thickness in vitro skin culture model (EFT-400), qPCR", "format": "cell-based, human", "details": "EFT-400 culture, 100 µL applied, 24 hours; values only in Fig. 3", "description": "as §7"}, "Fibroblast Growth Factor": {"system": "Fibroblast Growth Factor", "experiment": "FGF production by Human Dermal Fibroblast cells, ELISA", "format": "cell-based", "details": "HDF cells, graded concentrations, 48 hrs, vs un-treated cells; values only in Fig. 2", "protocol": "as §6"}}, "note": "No end group written: not given here.", "data": [{"substance": "test composition containing peptide of SEQ ID No. 1: peptide of SEQ ID No. 1 linked to oleanolic acid represented by STR#1; pentapeptide conjugate of oleanolic acid (KTTKS; also: linked to oleanolic acid, place not given here)", "values": [{"measurement": "Fold Increase", "setting": "CALML5", "result": 1.91, "unit": "Fold"}, {"measurement": "Fold Decrease", "setting": "KRT10", "result": -1.71, "unit": "Fold"}, {"measurement": "Fold Decrease", "setting": "TNF", "result": -4.34, "unit": "Fold"}, {"measurement": "Fold Increase", "setting": "LCE3D", "result": 1.61, "unit": "Fold"}, {"measurement": "Fold Increase", "setting": "ITGB4", "result": 1.76, "unit": "Fold"}, {"measurement": "Fold Increase", "setting": "CDSN", "result": 1.78, "unit": "Fold"}, {"measurement": "skin expression of HSP-47 gene", "setting": "HSP-47", "result": "Up-regulation"}, {"measurement": "Fold Increase", "setting": "TP63", "result": 1.56, "unit": "Fold"}, {"measurement": "Fold Decrease", "setting": "KRT4", "result": -2.11, "unit": "Fold"}, {"measurement": "Fold Increase", "setting": "AQP5", "result": 1.97, "unit": "Fold"}, {"measurement": "Fold Increase", "setting": "TGFB1", "result": 1.72, "unit": "Fold"}, {"measurement": "Fold Decrease", "setting": "IL8", "result": -1.68, "unit": "Fold"}, {"measurement": "Fold Increase", "setting": "LOR", "result": 1.63, "unit": "Fold"}, {"measurement": "Fold Decrease", "setting": "ILIA", "result": -1.77, "unit": "Fold"}, {"measurement": "Fold Increase", "setting": "FLG", "result": 2.23, "unit": "Fold"}, {"measurement": "Fold Increase", "setting": "BMP2", "result": 1.80, "unit": "Fold"}, {"measurement": "Fold Increase", "setting": "KLK5", "result": 2.44, "unit": "Fold"}, {"measurement": "Fold Increase", "setting": "PPARD", "result": 1.59, "unit": "Fold"}, {"measurement": "Fold Decrease", "setting": "PTGS2", "result": -1.80, "unit": "Fold"}, {"measurement": "Fold Increase", "setting": "CLDN7", "result": 1.69, "unit": "Fold"}, {"measurement": "Fold Increase", "setting": "DSG3", "result": 2.19, "unit": "Fold"}, {"measurement": "Fold Increase", "setting": "MKI67", "result": 1.83, "unit": "Fold"}, {"measurement": "TGF- β expression in human dermal fibroblasts", "setting": "[1]", "result": "increase"}, {"measurement": "skin expression of TIMP gene", "setting": "TIMP", "result": "Up-regulation"}, {"measurement": "skin expression of LOX gene", "setting": "LOX", "result": "Up-regulation"}, {"measurement": "skin expression of HSP-90 gene", "setting": "HSP-90", "result": "Up-regulation"}, {"measurement": "fibroblast growth factor expression in human dermal fibroblasts", "setting": "Fibroblast Growth Factor", "result": "increase"}]}]}
